The subject of assay [1] is vaccinia virus expressing the TK.007 HSV-TK variant (IGV-077). The arrangement: species or system mice. The conditions noted are these: mouse, in vivo.
The test system of assay [2] is vaccinia virus expressing the TK.007 HSV-TK variant (IGV-035). The arrangement: species or system BALB/c mice. Particulars: mouse, in vivo.

“Also recorded” adds a separate entry of the source.

The text below walks through data of patent US11685904B2 (priority 2019, dated 2023).

Consider `Nc1nc(O)c2ncn(COC(CO)CO)c2n1` [ganciclovir], for which, in assay [1], the “virus replication in tumors (plaque assay)” value is on record as “significantly reduced; also recorded: completely inhibited” and the “virus-mediated GFP expression in tumors (immunohistochemistry)” value is on record as “Low levels; also recorded: no virus-mediated GFP expression was detected”. In addition, in assay [2], the “average lesion size compared to the vehicle (no vaccinia virus) group” value was “comparable to the group treated with vehicle”, the “healing of topical lesions caused by vaccinia virus” value was “healed faster”, the “lesion size compared to the non-treated group” value is reported as “significantly smaller” and the “virus shedding from the tail scarification site” value is “reduced virus shedding”.
